Results reported in patent EP0066934A1, “Nitrofurantoin salts, their preparation and their use” ("PHARLYSE", Société Anonyme, priority 1981, dated 1982).

What was measured:
in vivo = settings: po, dose létale pour 50% des animaux
Source text: La toxicité de la nitrofurantoïne est connue pour donner des résultats variables suivant les caractéristiques du produit utilisé, notamment la taille des cristaux.

Solubility in water = format: physicochemical
Source text: La nitrofurantoïne ou N-(5-nitro-2-fur furylidène)-1-aminohydantoïne est un médicament, bien connu, utilisé notamment comme agent antiseptique des voies urinaires. […] Afin de pallier à cet inconvénient, différentes formes cristallines ont été développées avec peu de succès. Des sels de métaux alcalins de nitrofurantoine ont également été réalisés mais ceux-ci, bien que solubles, présentent l'inconvénient d'apporter avec eux, des ions alcalins qui sont souvent contre- indiqués, notamment lors des traitements au long cours chez les sujets soumis à un régime désodé.

[1] = 10% solution in water
Experimental: On refroidit à O°C une solution de 11,68 g de lysine base dans 190 ml d'eau. A cette solution limpide, on ajoute par petites portions et sous agitation 10,47 g de nitrofurantoïne. Quelques minutes après la fin de l'addition, la solution est filtrée, congelée et lyophilisée.

[2] = water, 25°C; cited from earlier work
[3] = aqueous solution; cited from earlier work

## O=C1CN(N=Cc2ccc([N+](=O)[O-])o2)C(=O)N1 [Exemple 2]
In vivo; mouse
  LD50: 960 mg/kg
In vivo; mouse, en nitrofurantoïne pure
  LD50: 530 mg/kg
In vivo; rat
  LD50: 1910 mg/kg
In vivo; rat, en nitrofurantoine pure
  LD50: 1050 mg/kg

## O=C1CN(N=Cc2ccc([N+](=O)[O-])o2)C(=O)N1 [Exemple 1]
Solubility in water; 20°C, read-out: solubilité dans l'eau à 20°C
  solubility: > 300 mg/mL
Solubility in water; qualitative
  solubilité dans l'eau (result in words): instantanément soluble dans l'eau
[1]
  pH d'une solution à 10% dans l'eau: 8,9 - 9,5

## O=C1CN(/N=C/c2ccc([N+](=O)[O-])o2)C(=O)N1 [nitrofurantoïne, N-(5-nitro-2-furfurylidène)-1-aminohydantoïne]
[2]
  soluble dans l'eau: 19 mg/100 ml
[3]
  pKa en solution aqueuse: ~7,2
